# Reference: patent US9050346B2, “Bromodomain inhibitors” (AbbVie Inc., priority 2013, dated 2015)
# Experiments:
# BRD4 (BDI_K57-E168) = molecular target: T1, BRD4 (BDI_K57-E168) (Homo sapiens, UniProt O60885); experiment: TR-FRET bromodomain binding assay, BRD4 first bromodomain; conditions: His-tagged BD1, 100 nM Alexa647 probe; Ki calculated from IC50; dilution protocol A-G
# T1 construct: BD1: amino acids K57-E168; made in house
# Method: (§1) A time-resolved fluorescence resonance energy transfer (TR-FRET) assay was used to determine the affinities of compounds of the Examples listed in Table 1 for each bromodomain of BRD4. His-tagged first (BD1: amino acids K57-E168) and second (BD2: amino acids E352-E168) bromodomains of BRD4 were expressed and purified. An Alexa647-labeled BET-inhibitor was used as the fluorescent probe in the assay.
# (§2) Compound dilution series were prepared in DMSO via an approximately 3-fold serial dilution from one of the following: • Assay method A: 2.5 mM-800 nM • Assay method B: 2.5 mM-797 nM • Assay method C: 1250 μM-21 nM • Assay method D: 500 μM-8.5 nM • Assay method E: 0.47 mM to 7.8 nM • Assay method F: 250 μM-4.2 nM • Assay method G: 0.047 mM to 0.78 nM or 5-fold serial dilution from Assay Method A or Assay Method B.
# (§3) For Assay methods A, C, D, and F: Compounds were then diluted 6:100 in assay buffer (20 mM Sodium Phosphate, pH 6.0, 50 mM NaCl, 1 mM Ethylenediaminetetraacetic acid, 0.01% Triton X-100, 1 mM DL-Dithiothreitol) to yield 3× working solutions. Six microliters (μL) of the working solution was then transferred to white, low-volume assay plates (Costar #3673). A 1.5× assay mixture containing His-tagged bromodomain, Europium-conjugated anti-His antibody (Invitrogen PV5596) and the Alexa-647-conjugated probe molecule was also prepared. Twelve μL of this solution were added to the assay plate to reach a final volume of 18 μL.
# (§4) For Assay methods B, E, and G: Compound dilutions were added directly into white, low-volume assay plates (Perkin Elmer Proxiplate 384 Plus#6008280) using a Labcyte Echo in conjunction with Labcyte Access and Thermo Multidrop CombinL robotics. Compounds were then suspended in eight microliters (μL) of assay buffer (20 mM Sodium Phosphate, pH 6.0, 50 mM NaCl, 1 mM Ethylenediaminetetraacetic acid disodium salt dihydrate, 0.01% Triton X-100, 1 mM DL-Dithiothreitol) containing His-tagged bromodomain, Europium-conjugated anti-His antibody (Invitrogen PV5596) and Alexa-647-conjugated probe.
# (§5) The final concentration of 1× assay mixture for assay methods A, B, C, D, E, F, and G contains 2% DMSO, 8 nM His-tagged bromodomain, 1 nM Europium-conjugated anti-His-tag antibody and 100 nM or 30 nM probe (for BDI or BDII, respectively) and compound concentration in the range of: 50 μM-16 nM for method A, 49.02 μM-15.63 nM for method B, 25 μM-423 pM for method C, 10 μM-169 pM for method D, 9.19 μM-150 pM for method E, 5 μM-85 pM for method F, and 0.92 μM-15 pM for method G.
# (§6) After a one-hour equilibration at room temperature, TR-FRET ratios were determined using an Envision multilabel plate reader (Ex 340, Em 495/520).
# (§7) TR-FRET data were normalized to the means of 24 no-compound controls (“high”) and 8 controls containing 1 μM un-labeled probe (“low”). Percent inhibition was plotted as a function of compound concentration and the data were fit with the 4 parameter logistic equation to obtain IC50s Inhibition constants (Ki) were calculated from the IC50s, probe Kd and probe concentration. Typical Z′ values were between 0.65 and 0.75. The minimum significant ratio was determined to evaluate assay reproducibility (Eastwood et al., (2006) J Biomol Screen, 11: 253-261). The MSR was determined to be 2.03 for BDI and 1.93 for BDII, and a moving MSR (last six run MSR overtime) for both BDI and BDII was typically <3.
# BRD4 (BDII_E352-M457) = molecular target: T2, BRD4 (BDII_E352-M457) (Homo sapiens, UniProt O60885); experiment: TR-FRET bromodomain binding assay, BRD4 second bromodomain
# T2 construct: made in house
# Method: as §1, §2, §3, §4, §5, §6, §7
# [1] = test system: breast cancer cell line MX-1; experiment: MX-1 cell line proliferation assay (3-day, Cell Titer Glo); format: cell-based; conditions: Homo sapiens, MX1, MX-1 cells, 72 h, top concentration 3 μM, read-out: Cellular proliferation: EC50
# Method: The impact of compounds of the Examples on cancer cell proliferation was determined using the breast cancer cell line MX-1 (ATCC) in a 3-day proliferation assay and the data are reported in Table 1. MX-1 cells were maintained in RPMI 1640 medium (Sigma) supplemented with 10% FBS at 37 C.° and an atmosphere of 5% CO2. For compound testing, MX-1 cells were plated in 96-well black bottom plates at a density of 5000 cells/well in 90 μL of culture media and incubated at 37° overnight to allow cell adhesion and spreading. Compound dilution series were prepared in DMSO via a 3-fold serial dilution from 3 mM to 0.1 μM. The DMSO dilution series were then diluted 1:100 in phosphate buffered saline, and 10 μL of the resulted solution were added to the appropriate wells of the MX-1 cell plate. The final compound concentrations in the wells were 3, 1, 0.3, 0.1, 0.03, 0.01, 0.003, 0.001, 0.0003 and 0.0001 μM.
# Luminescence readings from the Cell Titer Glo assay were normalized to the DMSO treated cells and analyzed using the GraphPad Prism software with sigmoidal curve fitting to obtain EC50s. The minimum significant ratio (MSR) was determined to evaluate assay reproducibility (Eastwood et al., (2006) J Biomol Screen, 11: 253-261).
smiles,measurement,setting,value
"COC(=O)c1cc2c(-c3ccccc3Oc3ccccc3)[nH]c(C)c2c(=O)[nH]1 [Example 1, methyl 3-methyl-4-oxo-1-(2-phenoxyphenyl)-4,5-dihydro-2H-pyrrolo[3,4-c]pyridine-6-carboxylate]",Ki,BRD4 (BDI_K57-E168),3.04 nM
same,Ki,BRD4 (BDII_E352-M457),24.6 nM
same,EC50,[1],67 nM
"COC(=O)c1cc2c(-c3cc(NS(C)(=O)=O)ccc3Oc3ccccc3)[nH]c(C)c2c(=O)[nH]1 [Example 3, methyl 3-methyl-1-(5-(methylsulfonamido)-2-phenoxyphenyl)-4-oxo-4,5-dihydro-2H-pyrrolo[3,4-c]pyridine-6-carboxylate]",Ki,BRD4 (BDI_K57-E168),3.33 nM
same,Ki,BRD4 (BDII_E352-M457),19.8 nM
same,EC50,[1],41.5 nM
"CCOC(=O)c1cc2c(-c3cc(N)ccc3Oc3ccc(F)cc3F)[nH]c(C)c2c(=O)[nH]1 [Example 4, ethyl 1-[5-amino-2-(2,4-difluorophenoxy)phenyl]-3-methyl-4-oxo-4,5-dihydro-2H-pyrrolo[3,4-c]pyridine-6-carboxylate]",Ki,BRD4 (BDI_K57-E168),12.3 nM
same,Ki,BRD4 (BDII_E352-M457),91.3 nM
same,EC50,[1],77.6 nM
"CCOC(=O)c1cc2c(-c3cc(NS(C)(=O)=O)ccc3Oc3ccccc3)[nH]c(C)c2c(=O)[nH]1 [Example 5, ethyl 3-methyl-1-(5-(methylsulfonamido)-2-phenoxyphenyl)-4-oxo-4,5-dihydro-2H-pyrrolo[3,4-c]pyridine-6-carboxylate]",Ki,BRD4 (BDI_K57-E168),1.44 nM
same,Ki,BRD4 (BDII_E352-M457),9.51 nM
same,EC50,[1],47.3 nM
"CCOC(=O)c1cc2c(-c3cc(NS(=O)(=O)CC)ccc3Oc3ccccc3)[nH]c(C)c2c(=O)[nH]1 [Example 6, ethyl 1-(5-(ethylsulfonamido)-2-phenoxyphenyl)-3-methyl-4-oxo-4,5-dihydro-2H-pyrrolo[3,4-c]pyridine-6-carboxylate]",Ki,BRD4 (BDI_K57-E168),1.23 nM
same,Ki,BRD4 (BDII_E352-M457),3.31 nM
same,EC50,[1],32.9 nM
"CCS(=O)(=O)Nc1ccc(Oc2ccccc2)c(-c2[nH]c(C)c3c(=O)[nH]c(C(=O)OC)cc23)c1 [Example 7, methyl 1-(5-(ethylsulfonamido)-2-phenoxyphenyl)-3-methyl-4-oxo-4,5-dihydro-2H-pyrrolo[3,4-c]pyridine-6-carboxylate]",Ki,BRD4 (BDI_K57-E168),2.15 nM
same,Ki,BRD4 (BDII_E352-M457),15.9 nM
same,EC50,[1],25.7 nM
"CCOC(=O)c1cc2c(-c3ccc(-c4cc(C)n[nH]4)cc3)[nH]c(C)c2c(=O)[nH]1 [Example 8, ethyl 3-methyl-1-[4-(3-methyl-1H-pyrazol-5-yl)phenyl]-4-oxo-4,5-dihydro-2H-pyrrolo[3,4-c]pyridine-6-carboxylate]",Ki,BRD4 (BDI_K57-E168),95.6 nM
same,Ki,BRD4 (BDII_E352-M457),615 nM
same,EC50,[1],737 nM
"CCOC(=O)c1cc2c(-c3cc(NS(C)(=O)=O)ccc3Oc3ccc(F)cc3F)[nH]c(C)c2c(=O)[nH]1 [Example 9, ethyl 1-{2-(2,4-difluorophenoxy)-5-[(methylsulfonyl)amino]phenyl}-3-methyl-4-oxo-4,5-dihydro-2H-pyrrolo[3,4-c]pyridine-6-carboxylate]",Ki,BRD4 (BDI_K57-E168),3.41 nM
same,Ki,BRD4 (BDII_E352-M457),29.3 nM
same,EC50,[1],71.6 nM
"CCOC(=O)c1cc2c(-c3cc(NS(=O)(=O)CC)ccc3Oc3ccc(F)cc3F)[nH]c(C)c2c(=O)[nH]1 [Example 10, ethyl 1-(2-(2,4-difluorophenoxy)-5-(ethylsulfonamido)phenyl)-3-methyl-4-oxo-4,5-dihydro-2H-pyrrolo[3,4-c]pyridine-6-carboxylate]",Ki,BRD4 (BDI_K57-E168),1.46 nM
same,Ki,BRD4 (BDII_E352-M457),8.61 nM
same,EC50,[1],57.4 nM
"Cc1[nH]c(-c2ccccc2Oc2ccccc2)c2cc(C(N)=O)[nH]c(=O)c12 [Example 11, 3-methyl-4-oxo-1-(2-phenoxyphenyl)-4,5-dihydro-2H-pyrrolo[3,4-c]pyridine-6-carboxamide]",Ki,BRD4 (BDI_K57-E168),4.31 nM
same,Ki,BRD4 (BDII_E352-M457),11.9 nM
same,EC50,[1],31.7 nM
"CNC(=O)c1cc2c(-c3ccccc3Oc3ccccc3)[nH]c(C)c2c(=O)[nH]1 [Example 13, N,3-dimethyl-4-oxo-1-(2-phenoxyphenyl)-4,5-dihydro-2H-pyrrolo[3,4-c]pyridine-6-carboxamide]",Ki,BRD4 (BDI_K57-E168),4.38 nM
same,Ki,BRD4 (BDII_E352-M457),14.1 nM
same,EC50,[1],23.4 nM
"Cc1[nH]c(-c2ccccc2Oc2ccccc2)c2cc(C(=O)N3CCOCC3)[nH]c(=O)c12 [Example 15, 3-methyl-6-(morpholine-4-carbonyl)-1-(2-phenoxyphenyl)-2H-pyrrolo[3,4-c]pyridin-4(5H)-one]",Ki,BRD4 (BDI_K57-E168),105 nM
same,Ki,BRD4 (BDII_E352-M457),307 nM
same,EC50,[1],1120 nM
"Cc1[nH]c(-c2ccccc2Oc2ccccc2)c2cc(C(=O)N3CCN(C)CC3)[nH]c(=O)c12 [Example 16, 3-methyl-6-(4-methylpiperazine-1-carbonyl)-1-(2-phenoxyphenyl)-2H-pyrrolo[3,4-c]pyridin-4(5H)-one]",Ki,BRD4 (BDI_K57-E168),32.7 nM
same,Ki,BRD4 (BDII_E352-M457),170 nM
same,EC50,[1],616 nM
"Cc1[nH]c(-c2ccccc2Oc2ccccc2)c2cc(C(=O)Nc3ccc(CN4CCN(C)CC4)cc3)[nH]c(=O)c12 [Example 17, 3-methyl-N-(4-((4-methylpiperazin-1-yl)methyl)phenyl)-4-oxo-1-(2-phenoxyphenyl)-4,5-dihydro-2H-pyrrolo[3,4-c]pyridine-6-carboxamide]",Ki,BRD4 (BDI_K57-E168),27.7 nM
same,Ki,BRD4 (BDII_E352-M457),2.29 nM
same,EC50,[1],177 nM
"Cc1[nH]c(-c2ccccc2Oc2ccccc2)c2cc(CO)[nH]c(=O)c12 [Example 18, 6-(hydroxymethyl)-3-methyl-1-(2-phenoxyphenyl)-2H-pyrrolo[3,4-c]pyridin-4(5H) one]",Ki,BRD4 (BDI_K57-E168),15.1 nM
same,Ki,BRD4 (BDII_E352-M457),31.6 nM
same,EC50,[1],90.1 nM
"Cc1[nH]c(-c2cc(NS(C)(=O)=O)ccc2Oc2ccc(F)cc2F)c2cc(C(N)=O)[nH]c(=O)c12 [Example 19, 1-(2-(2,4-difluorophenoxy)-5-(methylsulfonamido)phenyl)-3-methyl-4-oxo-4,5-dihydro-2H-pyrrolo[3,4-c]pyridine-6-carboxamide]",Ki,BRD4 (BDI_K57-E168),1.66 nM
same,Ki,BRD4 (BDII_E352-M457),6.08 nM
same,EC50,[1],270 nM
"Cc1[nH]c(-c2cc(NS(C)(=O)=O)ccc2Oc2ccccc2)c2cc(C(N)=O)[nH]c(=O)c12 [Example 20, 3-methyl-1-(5-(methylsulfonamido)-2-phenoxyphenyl)-4-oxo-4,5-dihydro-2H-pyrrolo[3,4-c]pyridine-6-carboxamide]",Ki,BRD4 (BDI_K57-E168),1.64 nM
same,Ki,BRD4 (BDII_E352-M457),2.39 nM
same,EC50,[1],146 nM
"Cc1[nH]c(-c2ccccc2Oc2ccccc2)c2cc(-c3nc(-c4ccncc4)no3)[nH]c(=O)c12 [Example 45, 3-methyl-1-(2-phenoxyphenyl)-6-(3-(pyridin-4-yl)-1,2,4-oxadiazol-5-yl)-2H-pyrrolo[3,4-c]pyridin-4(5H)-one]",Ki,BRD4 (BDI_K57-E168),10.5 nM
same,EC50,[1],180 nM
